Source: PMC6697681, “The predominance of nucleotidyl activation in bacterial phosphonate biosynthesis” (Nature Communications, 2019)

Assays:
[1] = target: T1, Tde-PntC (Tde1415) (Treponema denticola, UniProt Q73MU2); assay: X-ray crystal structure, […] Å; type: binding; conditions: PntC active site, two Mg2+; crystallised with 5 mM CTP and 5 mM AEP
T1 construct: full two-domain protein (N-terminal PntC, C-terminal AEPT), C-terminal His tag, pET21b (pGH3000), E. coli BL21(DE3); ~70 kDa monomer, dimer ~146 kDa by DLS

[2] = target: T2, Spn-LicC (Streptococcus pneumoniae, UniProt Q8DPI6); assay: coupled pyrophosphate release assay (EnzChek, MESG/PNP), initial rates; type: biochemical; conditions: substrate inhibition constant; saturating CTP (4 mM), 7 mM MgCl2, room temperature
T2 construct: monomer by DLS
Description: coupled pyrophosphate release assay (EnzChek, MESG/PNP), initial rates on Spn-LicC

[3] = target: T3, Ari-PntC (Ari1348) (Lancefieldella rimae, UniProt B9CM12); assay: as above; type: biochemical; conditions: substrate inhibition constant; saturating CTP (4 mM), 7 mM MgCl2, room temperature
T3 construct: codon-optimized gene in pET29 (pGH2000), C-terminal His6 tag, E. coli BL21(DE3), Ni-NTA and anion exchange; monomer by DLS
Description: coupled pyrophosphate release assay (EnzChek, MESG/PNP), initial rates on Ari-PntC (Ari1348)

[4] = target: T1, Tde-PntC (Tde1415); assay: X-ray crystal structure; type: binding; conditions: AEPT domain, non-covalently bound PLP

T1 sequence (Q73MU2 whole entry): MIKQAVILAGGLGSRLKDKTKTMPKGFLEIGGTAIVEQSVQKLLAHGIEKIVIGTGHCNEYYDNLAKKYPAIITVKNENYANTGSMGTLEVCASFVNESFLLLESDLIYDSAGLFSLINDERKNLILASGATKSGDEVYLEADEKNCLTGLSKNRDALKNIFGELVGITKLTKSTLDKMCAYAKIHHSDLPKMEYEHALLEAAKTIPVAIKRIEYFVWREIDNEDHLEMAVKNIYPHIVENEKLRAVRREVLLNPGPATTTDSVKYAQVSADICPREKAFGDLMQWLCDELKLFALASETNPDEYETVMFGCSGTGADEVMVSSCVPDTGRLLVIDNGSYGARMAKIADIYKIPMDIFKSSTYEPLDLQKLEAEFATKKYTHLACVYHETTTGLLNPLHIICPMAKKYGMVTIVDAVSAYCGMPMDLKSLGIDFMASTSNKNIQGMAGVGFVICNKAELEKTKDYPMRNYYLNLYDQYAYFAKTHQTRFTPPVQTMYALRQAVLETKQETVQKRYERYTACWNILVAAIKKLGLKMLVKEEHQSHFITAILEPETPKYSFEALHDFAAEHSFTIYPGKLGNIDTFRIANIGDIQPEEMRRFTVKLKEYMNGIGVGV
T3 sequence (B9CM12 whole entry): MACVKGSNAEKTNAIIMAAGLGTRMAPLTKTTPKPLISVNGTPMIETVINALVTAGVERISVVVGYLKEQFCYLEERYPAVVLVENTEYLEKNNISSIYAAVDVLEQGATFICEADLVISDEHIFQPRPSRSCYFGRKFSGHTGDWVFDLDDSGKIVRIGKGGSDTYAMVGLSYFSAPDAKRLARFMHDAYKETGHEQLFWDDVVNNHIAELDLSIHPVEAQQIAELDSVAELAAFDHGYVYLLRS
T2 sequence (Q8DPI6 whole entry): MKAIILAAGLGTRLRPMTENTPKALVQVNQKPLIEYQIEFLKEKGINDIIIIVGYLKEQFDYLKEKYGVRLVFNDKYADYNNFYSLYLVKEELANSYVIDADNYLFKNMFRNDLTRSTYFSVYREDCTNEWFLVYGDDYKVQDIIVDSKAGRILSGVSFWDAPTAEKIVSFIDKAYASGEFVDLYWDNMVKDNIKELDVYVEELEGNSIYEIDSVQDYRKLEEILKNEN

NCCP(=O)(O)OP(=O)(O)OC[C@H]1O[C@@H](n2ccc(N)nc2=O)[C@H](O)[C@@H]1O [CMP-AEP]
X-ray crystal structure, 1.95 Å [1]: Tde1415 and Tde1415:CMP-AEP have been deposited in the Protein Data Bank

C[N+](C)(C)CCOP(=O)([O-])O [P-Cho]
KS [2]: 6.4 ± 0.9 mM | KS [3]: 4 ± 1 mM

Cc1ncc(COP(=O)(O)O)c(C=O)c1O [PLP]
X-ray crystal structure [4]: The AEPT domain of Tde1415 possesses PLP and the requisite active site features
